Source: patent US20080269204A1, “Compounds and Methods of Use Thereof” (priority 2004, published 2008)

These compounds were tested on TNF-α production by PMBC (assay: Inhibition of TNF-α production by peripheral blood monocyte cells (PMBC), LPS-stimulated). Settings: 1 ug/mL LPS, 24 hours at 37° C, TNF-α quantified by EIA.
Type: cell-based
Protocol: Inhibition of TNF-α Production By Peripheral Blood Monocyte Cells (PMBC)
PMBC in RPMI 1640 Cell Culture Medium (containing 1% Penicillin and 1% Streptomycin) are aliquoted into 96-well plates at 5×10^5 cells/well and pre-incubated with test compounds for 30 minutes at 37° C. After incubation, 1 ug/mL LPS is added to each well to stimulate TNF-α production and the plate is incubated for 24 hours at 37° C. After incubation, the supernatant is removed and the TNF-α secreted is quantified using EIA detection kits commercially available from R&D Systems (USA). The results from this assay are expressed as percent inhibition of control activity, with the control being stimulated wells with no test compound. Dexamethasone is used as a standard reference compound in the assay and is tested with each experiment. All test compounds are diluted from 10 mM stock solutions in 100% DMSO.

`O=C1COc2ccc(F)cc2N1CCCCCB(O)O` [Example 3, 5-(6-fluoro-2,3-dihydro-3-oxobenzo[b][1,4]oxazin-4-yl)pentylboronic acid] and `O=C1COc2ccccc2N1CCCCCB(O)O` [Example 7, 5-(2,3-dihydro-3-oxobenzo[b][1,4]oxazin-4-yl)pentylboronic acid] are within 1.5-fold of each other in IC50: 0.26 µM for the first, 0.36 µM for the second.

Compared with `O=C1CSc2ccccc2N1CCCCCB(O)O` [Example 4, 5-(2,3-dihydro-3-oxobenzo[b][1,4]thiazin-4-yl)pentylboronic acid], `O=C1CSc2cc(Cl)ccc2N1CCCCCB(O)O` [Example 5, 5-(7-chloro-2,3-dihydro-3-oxobenzo[b][1,4]thiazin-4-yl)pentylboronic acid] is 8.8-fold lower in IC50: 0.7 µM for the first, 0.08 µM for the second. The second is the more potent here.

Compared with `O=C1COc2cc([N+](=O)[O-])ccc2N1CCCCCB(O)O` [Example 6, 5-(2,3-dihydro-7-nitro-3-oxobenzo[b][1,4]oxazin-4-yl)pentylboronic acid], `CCOC(=O)CC1Sc2ccccc2N(CCCCCB(O)O)C1=O` (stereo not drawn) [Example 8, ethyl 2-(3,4-dihydro-3-oxo-4-(5-pentylboronic acid)-2H-benzo[b][1,4]thiazin-2-yl)acetate] is 11-fold higher in IC50: 0.074 µM for the first, 0.81 µM for the second. The first is the more potent here.
